We go through two substances from paper PMC8191290, “Substrate specificities and reaction kinetics of the yeast oligosaccharyltransferase isoforms” (The Journal of Biological Chemistry, 2021).

Like-named read-outs stand apart in the source and are kept apart here.

The target of this experiment is T1, OST3 complex (Saccharomyces cerevisiae, UniProt P39007).
T1 construct: were purified separately from strains expressing only one type of complex; made in house; host or cells: Saccharomyces cerevisiae, BY4742-derived strain ost6::LEU2MX6 OST4-1D4::kanMX6 YEp352-OST3
Put plainly: In vitro glycosylation assay, kinetic parameters for acceptor peptides, OST3 complex. The conditions noted are these: for Km: 10 mM MnCl2, pH 7.5, 30 °C, UPLC TAMRA fluorescence, read-out: KM (apparent); for Km / kcat (apparent): n = 3; for kcat (apparent): 30 °C. It counts as biochemical. As for the experimental part:
Figure 2 In vitro glycosylation assay for OST activity and peptide sequence preferences.A, schematic representation of the in vitro reaction setup for yeast OST activity. The peptide substrate containing the glycosylation sequon N-X-(S/T) is labeled with the TAMRA fluorophore at the N-terminus. Incubation with OST, synthetic LLO, and a divalent metal ion (Mn^2+preferred) results in the transfer of the sugar moiety (two GlcNAcs, blue squares) from the LLO to the fluorescently labeled peptide, yielding a glycopeptide product. B, measurement and analysis of the in vitro assay shown in A. Fluorescently labeled peptide (P) substrate and glycopeptide (GP) product are separated by reverse-phase chromatography using UPLC. The glycopeptide elutes earlier than the peptide and amounts of glycopeptide are quantified at different reaction time points by peak integration. C, quantification of kinetic parameters for synthetic peptide TAMRA-DANYTK. Reactions were performed with 2.8 μg purified extract containing OST3 complex before size-exclusion chromatography (approximately 1 μM OST3 complex), 150 μM LLO C20, and varying concentrations of the peptide. Glycopeptide product was measured by UPLC and turnover rates were determined by linear regression of the initial phase of the reaction and taking into account the enzyme concentration. The mean of three reactions is shown and the data were fitted by nonlinear regression according to the Michaelis–Menten formula (R^2 = 0.9803) using Prism. Error bars indicate standard deviations from the mean (n = 3). D, screening glycosylatable peptides derived from highly glycosylated yeast sequences. Reactions were performed with 0.4 μM purified OST3 complex, 150 μM LLO C20, 25 μM TAMRA-DANYTK, and 25 μM unlabeled competitor peptide. TAMRA-DANYTK glycopeptide product formed after 30 min was measured by UPLC and % inhibition was determined relative to a control reaction containing no unlabeled competitor peptide. E, quantification of kinetic parameters for synthetic peptide TAMRA-YANATS. Reactions were performed with 0.1 μM purified OST3 complex, 100 μM LLO C20, and varying concentrations of the peptide. Turnover rates were determined as in C. The mean of three reactions is shown and the data were fitted by nonlinear regression according to the Michaelis–Menten formula (R^2 = 0.9794) using Prism. Error bars indicate standard deviations from the mean (n = 3). P, phosphate; TAMRA, tetramethylrhodamine.
TAMRA-labeled peptides with 5-TAMRA at the N-terminus and an amide group at the C-terminus were synthesized by WatsonBio Sciences. Unlabeled peptides (Table S1) were synthesized by Genscript Corp. and were designed so that the asparagine of the glycosylation sequon was in the middle (except for Peptide 8). Lyophilized peptides were dissolved in dimethyl sulfoxide (DMSO), unless specified otherwise, to a 3 mM stock solution and further diluted in ddH2O for reactions.
Reactions were performed in a total volume of 10 μl containing the specified amount of TAMRA-labeled peptide, synthetic LLO analog, 10 mM MnCl2, and purified OST after size-exclusion chromatography in purification buffer (50 mM Hepes, pH 7.5, 150 mM NaCl, 1 mM MgCl2, 1 mM MnCl2, 10% (v/v) glycerol, 0.03% (w/v) DDM, and 0.006% (w/v) CHS). The concentration of OST was calculated using the molecular weight of 280 kDa. The reaction mixture was preincubated at 30 °C for 5 min before adding the peptide to start the reaction that proceeded at 30 °C. Time points were taken such that the reaction was in the linear phase. At each time point, 1 μl reaction mixture was taken and the reaction was stopped by dilution in stop solution (0.1% FA in 10% ACN, 10 mM KPO4 pH 8.0) such that the final peptide concentration was 2 μM.
Samples were analyzed by reverse-phase chromatography using a UPLC Dionex UltiMate 3000 with an Accucore 150-C18 100 × 2.1 mm 2.6 μm column (Thermo Fisher Scientific). […]

Setting [1] is: 0.1 μM purified OST3 complex, 100 μM LLO C20, 10–500 μM peptide.

On to “TAMRA-DANYTK-NH2 [fluorescently labeled hexapeptide TAMRA-DANYTK-NH2 as the acceptor peptide, reference compound]”, for which, under “2.8 μg purified extract (approx. 1 μM OST3 complex), 150 μM LLO C20”, the kcat/KM is recorded as 0.02 min^-1 μM^−s1. The Km by setting is: (2.8 μg purified extract (approx. 1 μM OST3 complex, before SEC), 150 μM LLO C20, 10–400 μM peptide, saturation not reached, listed as TAMRA-DANYTK-NH2) ~200 µM; (2.8 μg purified extract (approx. 1 μM OST3 complex, before SEC), 150 μM LLO C20, 10–400 μM peptide, saturation not reached) 201 ± 51.3 µM. For the setting “2.8 μg purified extract (approx. 1 μM OST3 complex, before SEC), 150 μM LLO C20, 10–400 μM peptide”, the “kcat (apparent)” value is 0.065 ± 0.01 s⁻¹.

“TAMRA-YANATS [shorter version of Peptide 5 of only six amino acid residues (TAMRA-YANATS)]”: the kcat/KM (0.1 μM purified OST3 complex, 100 μM LLO C20) turned out to be 0.26 min^-1 μM^−s1. Besides, under setting [1], the Km was 55.6 ± 6.5 µM and the “kcat (apparent)” value amounted to 0.242 ± 0.012 s⁻¹. For the setting “OST3 complex”, the “specificity relative to TAMRA-DANYTK” value is on record as “over ten times more specific”. In addition, for the setting “OST3 complex, relative to TAMRA-DANYTK”, the “fold lower apparent KM” value came to 3.5 fold.

For orientation: Km means the substrate concentration at which the rate is half of its maximum.
